Results: US8637679B2, “Process for the isolation of organic compounds useful for the treatment of cancer” (Council of Scientific and Industrial Research, priority 2011, dated 2014)

Tests used:
[1] = system: MIAPaCa-2; test: MTT cell viability assay, MIAPaCa-2; assay type: cell-based, human; conditions: Homo sapiens, MIA PaCa-2; MIAPaCa-2, 48 hrs
Experimental: (§1) Human cervical cancer cell lines (HeLa, ME-180 and SiHa), brain tumor cell lines (U87MG, U373MG, U87MG EGFRvIII, T98G, A172 and LN229), lymphoid leukemia (MOLT-3, MOLT-4, REH and CEMC-7), myloid leukemia (K562), pancreatic cancer (MIAPaCa-2, AsPC-1, Panc-1 and Panc 10.05), lung cancer (A549) and colon cancer (HCT116 and SW480) cell lines from American Type Culture Collection, Manassas, Va., USA were grown in IMDM or RPMI (cell specific) Medium supplemented with 10% fetal bovine serum and 1% antibiotic-antimycotic. Cells were cultured in 37° C. in an atmosphere of 5% CO2.
(§2) Viability of cancer cell lines after treatment as at the indicated times was determined by MTT assay. Briefly, 10,000 cells were plated in triplicate in 96 well plates and incubated for 24 and 48 hours in complete media in presence of varying dose of mahanine (0-50 μM). 100 ug MTT was added in each well. Incubate the plate for 1-4 hours at 37° C. and humidified 5% CO2 atmosphere. Absorbance was recorded at 550 nm with 96 well plate readers.

[2] = system: MIAPaCa-2; test: Scratch-wound haptotaxis assay, MIAPaCa-2; assay type: cell-based, human; conditions: MIAPaCa-2, highest treated cells, 6 hrs
Experimental: (§3) Highly and moderately invasive pancreatic cancer cell lines, MIAPaCa-2 and BxPC3 (1×10^6/ml/well) were cultured to >90% confluence in 6 well plate. Consequently, cell were rinsed with PBS and starved in low serum media (2 ml containing 0.5%-0.1% serum in RPMI-1640 for MIAPaCa-2 and BxPC-3) for overnight. On the following day, three separate scratch-wounds were made through the confluent cells. Scratched plate was rinsed with PBS and replaced with serum starved media containing successive doses of mahanine or EtOH for 6 hrs. Picture was taken by using phase contrast at 10× accordingly.

[3] = system: BxPC-3; test: Scratch-wound haptotaxis assay, BxPC-3; assay type: cell-based, human; conditions: BxPC-3, highest treated cells, 6 hrs
Experimental: as §3

[4] = system: Molt-3; test: MTT cell viability assay, Molt-3; assay type: cell-based, human; conditions: Homo sapiens; Molt-3, 48 hrs
Experimental: as §1, §2

[5] = system: Molt-4; test: MTT cell viability assay, Molt-4; assay type: cell-based, human; conditions: Homo sapiens; Molt-4, 48 hrs
Experimental: as §1, §2

[6] = target: human Hsp90; test: Surface plasmon resonance binding to immobilized Hsp90; conditions: SPR, Hsp90-mahanine complex
Experimental: The portion of the sensorgram which corresponds to the dissociation of mahanine from Hsp90 was analyzed by the BIA evaluation program 2.1 to obtain the dissociation rate (kd) (FIG. 22). The experimental data fits well with the single exponential kinetic model used. Some experiments were repeated at a flow rate of 5 μl/min to check the effect of possible rebinding. Rebinding and mass transfer limitation was also checked by the repetition of the experiments at lower levels of immobilized Hsp90. […] Using the corresponding kd values nonlinear curve fitting of the association phase of the corresponding sensorgram was carried out with the BIA evaluation program 2.1 to obtain association rate (ka).
All the solutions were passed through a 0.22 micron Millipore filter and de-gassed in vacuum for 6-7 minutes at room temperature. For coupling Hsp90 to the SPR sensor chips, 400 μl (50 μg/ml) human Hsp90 was dialysed over night at 4° C. against coupling buffer containing 5 mM Na2HPO4, pH 7.4 and 150 mM NaCl to remove Tris, which interferes with the coupling. Before coupling, carboxymethyl-dextran sensor chips (CM5, Lot 1170768, Biacore, Upsala Sweden) were incubated with running buffer containing 10 mM HEPES, pH 7.4, 0.15 M KCl and 0.001% Tween-20 to prevent the unspecific binding of proteins to the capillaries in a BIAcore apparatus for 10 minutes at 25° C. at a flow rate of 5 μl/min. […]

[7] = target: Hsp90β (Homo sapiens, UniProt P08238); test: γ-ATP sepharose binding assay, Hsp90β; conditions: mahanine at 50 and 100 μM
Experimental: 5 μg of purified Hsp90α and Hsp90β were pre-incubated separately on ice with 200 μL incubation buffer (10 mM Tris-Hcl, 50 mM KCl, 5 mM MgCl2, 2 mM DTT, 20 mM Na2MoO4, 0.01% NP40, pH 7.5) containing mahanine or 17-AAG and incubated for 30 mins on ice. After the incubation, 25 μL pre-equilibrated γ-phosphate ATP sepharose added and again incubated at 37° C. with frequent agitation.
Sepharose subsequently washed and analyzed by SDS-PAGE. Then the blot was probed with anti Hsp90 antibody and developed by ECL.

[8] = system: T98G; test: MTT cell viability assay, T98G; assay type: cell-based, human; conditions: Homo sapiens, 48 hrs
Experimental: as §1, §2

[9] = system: glioma cells (U87MG, U373MG, LN229, A172 and T98G); test: MTT assay, panel of glioma cell lines; assay type: cell-based, human; conditions: Homo sapiens, Glioma cell, range over U87MG, 48 hr, read-out: IC50 values against different glioma cell lines
Experimental: as §1, §2

[10] = system: MIAPaCa-2; test: Transmigration assay (EGF-driven); assay type: cell-based, human; conditions: 24 hrs exposure
Experimental: MIAPaCa-2 cells were treated with mahanine in dose responsive manner for 24 hrs. Afterward, different growth factors (VEGF, EGF and PDGF) were dissolved in medium at a final concentration of 20 ng/ml and added into the outer well of the 24-transwell plate (PromoCell Heidelberg, Germany) as per manufacturer instruction. Mahanine-pretreated cells (5×10^4 cells/well/500 μl) were added into the insert and incubated at in a humidified incubator (37° C., 5% CO2) for 6 hours and subsequently invaded cells were fixed with chilled methanol and stained with 0.1% crystal violet. Random fields were photographed and quantified under the phase contrast microscope.

[11] = system: orthotopic pancreatic tumour; test: Orthotopic pancreatic tumour model; assay type: in vivo; conditions: athymic nude mice

Hsp90β, sequence (P08238 whole entry): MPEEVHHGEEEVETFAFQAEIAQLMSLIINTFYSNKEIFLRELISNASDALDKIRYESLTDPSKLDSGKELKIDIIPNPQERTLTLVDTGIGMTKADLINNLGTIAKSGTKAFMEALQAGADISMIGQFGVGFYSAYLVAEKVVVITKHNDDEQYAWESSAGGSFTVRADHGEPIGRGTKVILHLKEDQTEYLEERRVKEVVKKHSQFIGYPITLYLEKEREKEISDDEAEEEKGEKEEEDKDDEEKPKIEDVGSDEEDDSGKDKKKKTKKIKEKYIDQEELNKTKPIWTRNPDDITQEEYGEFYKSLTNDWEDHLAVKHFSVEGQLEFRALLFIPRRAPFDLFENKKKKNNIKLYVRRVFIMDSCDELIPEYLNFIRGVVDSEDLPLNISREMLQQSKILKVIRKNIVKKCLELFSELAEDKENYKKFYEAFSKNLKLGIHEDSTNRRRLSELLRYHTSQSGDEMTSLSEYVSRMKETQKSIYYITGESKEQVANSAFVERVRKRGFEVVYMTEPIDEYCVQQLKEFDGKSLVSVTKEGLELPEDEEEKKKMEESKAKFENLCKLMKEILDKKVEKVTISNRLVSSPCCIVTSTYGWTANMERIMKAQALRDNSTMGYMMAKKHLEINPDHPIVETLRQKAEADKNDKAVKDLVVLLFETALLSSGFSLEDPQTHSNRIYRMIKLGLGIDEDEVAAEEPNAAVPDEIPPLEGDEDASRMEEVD

## CC(C)=CCCC1(C)C=Cc2c(c(C)cc3c2[nH]c2cc(O)ccc23)O1 (stereo not drawn) [Mahanine, mahanine]
[1]
  IC50: 13.9 µM
[2]
  wound closure / migratory cells: < 5%
[3]
  wound closure / migratory cells: < 5%
[4]
  IC50: 10.6 ± 0.3 µM
[5]
  IC50: 10.7 ± 0.6 µM
[6]
  Dissociation constant (KD) (kd/ka): 4.99 µM
[7]
  effect on ATP binding to purified Hsp90: could not reduce
[8]
  IC50: 16.1 ± 0.9 µM
[9]
  IC50: 12 to 17 µM
[10]; ~0.6×IC50 (10 μM)
  EGF-driven MIAPaCa-2 migration, % of controls: 48.6 % of controls
[10]; ~1×IC50, 15 μM
  EGF-driven MIAPaCa-2 migration: nearly complete inhibition
[11]
  orthotopic pancreatic tumour growth: tumour growth inhibition
